This passage reports IC50 and GI50 results from ChEMBL document CHEMBL5356962, “Synthesis, activity, and their relationships of 2,4-diaminonicotinamide derivatives as EGFR inhibitors targeting C797S mutation” (Bioorg Med Chem Lett, 2024).

One may read the IC50 as the concentration that gives 50% inhibition. A higher IC50 goes with a need for much substance. What is called GI50 is the concentration that inhibits growth by half. Read a high GI50 as lower sensitivity of the cells.

Molecules are shown by their SMILES.

The target of experiment [1] is Epidermal growth factor receptor (Homo sapiens, UniProt P00533). Nature of the experiment: Inhibition of wild-type EGFR (unknown origin) phosphorylation.
Epidermal growth factor receptor (Homo sapiens, UniProt P00533), sequence (P00533 whole entry): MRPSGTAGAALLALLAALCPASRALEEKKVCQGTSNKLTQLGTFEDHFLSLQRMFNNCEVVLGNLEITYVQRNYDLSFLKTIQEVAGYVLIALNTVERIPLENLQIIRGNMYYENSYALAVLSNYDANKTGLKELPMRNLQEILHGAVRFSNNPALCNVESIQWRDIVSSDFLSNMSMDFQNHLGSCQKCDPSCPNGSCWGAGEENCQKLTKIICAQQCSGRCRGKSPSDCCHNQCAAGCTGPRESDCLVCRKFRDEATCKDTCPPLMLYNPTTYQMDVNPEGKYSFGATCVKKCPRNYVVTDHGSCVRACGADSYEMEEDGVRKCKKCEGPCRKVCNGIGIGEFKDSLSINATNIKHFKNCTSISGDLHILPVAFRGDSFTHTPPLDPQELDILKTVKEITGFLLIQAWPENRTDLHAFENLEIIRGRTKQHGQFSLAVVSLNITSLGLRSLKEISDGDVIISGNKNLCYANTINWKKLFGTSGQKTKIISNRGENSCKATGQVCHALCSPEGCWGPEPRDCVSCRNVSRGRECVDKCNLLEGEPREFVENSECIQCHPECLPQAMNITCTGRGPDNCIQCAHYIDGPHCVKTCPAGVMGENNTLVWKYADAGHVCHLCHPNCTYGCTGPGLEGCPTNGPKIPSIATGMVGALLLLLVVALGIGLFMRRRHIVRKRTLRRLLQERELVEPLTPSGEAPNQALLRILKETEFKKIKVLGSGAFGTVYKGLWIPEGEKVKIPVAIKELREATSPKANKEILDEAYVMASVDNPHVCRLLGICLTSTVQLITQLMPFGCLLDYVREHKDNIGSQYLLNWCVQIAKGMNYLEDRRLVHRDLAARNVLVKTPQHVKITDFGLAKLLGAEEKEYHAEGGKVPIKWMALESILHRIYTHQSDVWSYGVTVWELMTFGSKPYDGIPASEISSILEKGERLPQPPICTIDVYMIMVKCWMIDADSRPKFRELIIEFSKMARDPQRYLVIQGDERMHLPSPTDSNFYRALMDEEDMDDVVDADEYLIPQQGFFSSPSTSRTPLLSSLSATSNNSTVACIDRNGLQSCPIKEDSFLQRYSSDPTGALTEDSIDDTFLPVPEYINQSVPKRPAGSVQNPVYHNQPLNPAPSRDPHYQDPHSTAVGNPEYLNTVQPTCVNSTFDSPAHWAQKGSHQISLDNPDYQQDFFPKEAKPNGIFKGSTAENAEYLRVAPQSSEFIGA
Experiment [2] addresses Epidermal growth factor receptor (Homo sapiens, UniProt P00533, C797S/L858R/T790M). Nature of the experiment: Inhibition of EGFR L858R/T790M/C797S mutant (unknown origin) phosphorylation.
Experiment [3] concerns the target Epidermal growth factor receptor (Homo sapiens, UniProt P00533, C797S/EX19DEL/T790M). The experiment in a line: Inhibition of EGFR Del19/T790M/C797S mutant (unknown origin) phosphorylation.
In experiment [4] the test system is BaF3. The experiment in a line: Inhibition of cell proliferation of mouse BaF3 cells expressing EGFR L858R/T790M/C797S mutant (unknown origin). The format is functional.
The test system of experiment [5] is BaF3. Nature of the experiment: Inhibition of cell proliferation of mouse BaF3 cells expressing wild-type EGFR (unknown origin). It is filed as functional.
The subject of experiment [6] is BaF3. The experiment in a line: Inhibition of cell proliferation of mouse BaF3 cells expressing EGFR Del19/T790M/C797S mutant (unknown origin). It is filed as functional.

Epidermal growth factor receptor (Homo sapiens, UniProt P00533, C797S/L858R/T790M), sequence (P00533 25-1210 T790M/C797S/L858R limits assumed): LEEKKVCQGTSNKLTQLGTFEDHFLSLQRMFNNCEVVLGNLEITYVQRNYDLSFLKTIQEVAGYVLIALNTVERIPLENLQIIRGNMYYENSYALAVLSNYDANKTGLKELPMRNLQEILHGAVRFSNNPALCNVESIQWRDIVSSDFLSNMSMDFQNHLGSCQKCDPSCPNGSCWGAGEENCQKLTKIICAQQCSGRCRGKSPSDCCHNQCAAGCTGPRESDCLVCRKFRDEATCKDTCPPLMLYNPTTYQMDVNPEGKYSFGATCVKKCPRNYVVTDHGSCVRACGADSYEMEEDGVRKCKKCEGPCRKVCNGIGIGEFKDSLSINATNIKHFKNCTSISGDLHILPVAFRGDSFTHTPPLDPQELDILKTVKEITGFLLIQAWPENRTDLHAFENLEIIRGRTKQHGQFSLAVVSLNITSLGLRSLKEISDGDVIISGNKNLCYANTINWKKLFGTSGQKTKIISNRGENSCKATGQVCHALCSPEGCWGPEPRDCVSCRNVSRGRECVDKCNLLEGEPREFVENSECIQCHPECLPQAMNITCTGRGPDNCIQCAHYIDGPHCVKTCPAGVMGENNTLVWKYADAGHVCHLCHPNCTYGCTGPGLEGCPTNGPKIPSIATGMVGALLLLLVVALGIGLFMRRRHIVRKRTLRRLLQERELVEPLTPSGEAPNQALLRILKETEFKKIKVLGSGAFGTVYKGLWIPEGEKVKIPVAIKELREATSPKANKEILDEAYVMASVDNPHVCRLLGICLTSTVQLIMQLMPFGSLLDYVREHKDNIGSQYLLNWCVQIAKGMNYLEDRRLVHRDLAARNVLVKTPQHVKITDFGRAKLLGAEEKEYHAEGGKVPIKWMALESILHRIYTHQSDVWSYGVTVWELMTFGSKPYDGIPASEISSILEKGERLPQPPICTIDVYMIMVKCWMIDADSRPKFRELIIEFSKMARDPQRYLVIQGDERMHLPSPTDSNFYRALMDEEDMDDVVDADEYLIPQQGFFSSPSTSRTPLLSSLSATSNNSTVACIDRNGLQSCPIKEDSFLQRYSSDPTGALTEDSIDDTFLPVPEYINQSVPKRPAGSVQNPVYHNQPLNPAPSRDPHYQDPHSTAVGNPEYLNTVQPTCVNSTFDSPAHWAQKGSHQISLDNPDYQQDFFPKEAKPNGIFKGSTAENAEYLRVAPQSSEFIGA
Epidermal growth factor receptor (Homo sapiens, UniProt P00533, C797S/EX19DEL/T790M), sequence (P00533 whole entry, looked up, stated change not applied): as the sequence (P00533 whole entry) above

On to `CC[C@H](C)Nc1cc(Nc2ccnc(-c3cnn(S(=O)(=O)C4CC4)c3)n2)ncc1C(=O)N(C)C`, for which the half-maximal inhibitory concentration (IC50) was more than 5 µM in experiment [1], 0.3 µM in experiment [2] and 0.45 µM in experiment [3].
As to `CC[C@H](C)Nc1cc(Nc2ccnc(-c3cnn(S(=O)(=O)C4CC4)c3)n2)ncc1C(=O)NCCN(C)C`, the IC50 in experiment [1] worked out at 0.265 µM; in experiment [2] it was 0.01 µM; in experiment [3] it was 0.011 µM. Moreover, the GI50 with BaF3 [4] (Mus musculus, BaF3) was 0.446 µM; in the experiment with BaF3 [5] (Mus musculus, BaF3) it was 1.22 µM; in the experiment on BaF3 [6] (Mus musculus, BaF3), 0.193 µM.
Consider `CC(C)Oc1cc(Nc2ccnc(-c3cnn(S(=O)(=O)C4CC4)c3)n2)ncc1C(=O)N1CC(C(C)(C)O)C1`, for which the IC50 in experiment [1], in experiment [2] and in experiment [3] was more than 5 µM in each case.
`CC(C)Nc1cc(Nc2ccnc(-c3cnn(S(=O)(=O)C4CC4)c3)n2)ncc1C(=O)N1CC(C(C)(C)O)C1`: the IC50 in experiment [1] came out at 0.552 µM; in experiment [2] it was 0.051 µM; in experiment [3], 0.072 µM.
`CC[C@H](C)Nc1cc(Nc2ccnc(-c3cnn(S(=O)(=O)C4CC4)c3)n2)ncc1C(=O)NCCC(F)F`: the GI50 came out at 0.081 µM with BaF3 [4] (Mus musculus, BaF3); 1.08 µM in the experiment on BaF3 [5] (Mus musculus, BaF3); 0.035 µM with BaF3 [6] (Mus musculus, BaF3).
Consider `CC[C@H](C)Nc1cc(Nc2ccnc(-c3cnn(S(=O)(=O)C4CC4)c3)n2)ncc1C(=O)NCCCF`, for which the IC50 was 0.055 µM in experiment [1], 0.0037 µM in experiment [2] and 0.0045 µM in experiment [3]. Further, the concentration for 50% growth inhibition (GI50) was 0.129 µM in the experiment with BaF3 [4] (Mus musculus, BaF3); 1.05 µM with BaF3 [5] (Mus musculus, BaF3); 0.056 µM in the experiment on BaF3 [6] (Mus musculus, BaF3).
Take `CC[C@H](C)Nc1cc(Nc2ccnc(-c3cnn(S(=O)(=O)C4CC4)c3)n2)ncc1C(=O)NC`: the IC50 is 0.045 µM in experiment [1], 0.0036 µM in experiment [2] and 0.0036 µM in experiment [3]. Further, the concentration for 50% growth inhibition (GI50) turned out to be 0.163 µM in the experiment with BaF3 [4] (Mus musculus, BaF3); 0.927 µM in the experiment with BaF3 [5] (Mus musculus, BaF3); 0.068 µM in the experiment on BaF3 [6] (Mus musculus, BaF3).
On to `CCC(=O)c1cnc(Nc2ccnc(-c3cnn(S(=O)(=O)C4CC4)c3)n2)cc1N[C@@H](C)CC`, for which the values for the IC50 in experiment [1], in experiment [2] and in experiment [3] were 0.212 µM, 0.011 µM and 0.013 µM, respectively.
Regarding `CCNC(=O)c1cnc(Nc2ccnc(-c3cnn(S(=O)(=O)C4CC4)c3)n2)cc1N[C@@H](C)CC`, the IC50 in experiment [1] stood at 0.077 µM; in experiment [2] it was 0.0056 µM; in experiment [3], 0.006 µM. Further, the GI50 came out at 0.191 µM in the experiment with BaF3 [4] (Mus musculus, BaF3); 1.27 µM with BaF3 [5] (Mus musculus, BaF3); 0.072 µM with BaF3 [6] (Mus musculus, BaF3).
Regarding `CCNS(=O)(=O)c1cnc(Nc2ccnc(-c3cnn(S(=O)(=O)C4CC4)c3)n2)cc1N[C@@H](C)CC`, the concentration for half-maximal inhibition (IC50) in experiment [1] is more than 5 µM; in experiment [2], 4.88 µM; in experiment [3] it was more than 5 µM.
`CC[C@H](C)Nc1cc(Nc2ccnc(-c3cnn(S(=O)(=O)C4CC4)c3)n2)ncc1C(=O)N1CC(C(C)(C)O)C1`: the IC50 is 0.235 µM in experiment [1], 0.022 µM in experiment [2] and 0.03 µM in experiment [3].
For `CC[C@H](C)Nc1cc(Nc2ccnc(-c3cnn(S(=O)(=O)C4CC4)c3)n2)ncc1C(=O)NC1CCOCC1`, the GI50 in the experiment with BaF3 [4] (Mus musculus, BaF3) worked out at 0.452 µM; in the experiment on BaF3 [5] (Mus musculus, BaF3) it was 1.66 µM; with BaF3 [6] (Mus musculus, BaF3), 0.156 µM.
Regarding `C=CC(=O)Nc1cc(Nc2nccc(-c3cn(C)c4ccccc34)n2)c(OC)cc1N(C)CCN(C)C` [OSIMERTINIB], the GI50 is 1.29 µM with BaF3 [4], 0.107 µM in the experiment on BaF3 [5] and 2.06 µM with BaF3 [6].
